Structures can show the parent of a compound that is named as a salt. Where two headings read alike, the source gives them in different places. Marks after values point to notes of the source that are not given here.
How the values were obtained:
human D1R = target: T1, human D1R (Homo sapiens, UniProt P21728); conditions: human cloned receptor; read-out: Ki ± SEM, D1R; cited from earlier work
T1 construct: expressed in transfected cells; host or cells: mouse fibroblast cells (LhD1)

D3R [1] = target: T2, D3R (Homo sapiens, UniProt P35462); design: expressed in transfected cells; host or cells: HEK293; conditions: cited from earlier work; for D2/D3: ratio of Ki values D2R/D3R; for D4/D3: ratio of Ki values D4R/D3R
D2R = D2R (Homo sapiens, UniProt P14416); design: expressed in transfected cells; host or cells: HEK293; conditions: human cloned receptor; read-out: Ki ± SEM, D2R; cited from earlier work
5-HT2CR = target: T3, 5-HT2CR (Homo sapiens, UniProt P28335); design: expressed in transfected cells; host or cells: HEK (HEK-h5HT2C); conditions: human cloned receptor; read-out: Ki ± SEM, 5-HT2CR; cited from earlier work
T3 sequence (P28335 33-458): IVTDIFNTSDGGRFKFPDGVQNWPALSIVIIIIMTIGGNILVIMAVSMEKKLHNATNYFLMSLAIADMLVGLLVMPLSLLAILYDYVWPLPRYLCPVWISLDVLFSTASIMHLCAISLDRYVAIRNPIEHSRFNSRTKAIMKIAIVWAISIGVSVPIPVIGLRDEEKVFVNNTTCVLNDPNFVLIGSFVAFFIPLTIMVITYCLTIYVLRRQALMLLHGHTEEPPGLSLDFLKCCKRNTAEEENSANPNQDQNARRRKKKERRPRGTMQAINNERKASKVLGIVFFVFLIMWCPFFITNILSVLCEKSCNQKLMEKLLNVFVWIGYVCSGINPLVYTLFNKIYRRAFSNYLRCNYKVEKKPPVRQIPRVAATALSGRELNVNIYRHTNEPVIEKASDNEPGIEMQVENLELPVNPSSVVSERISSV

human 5-HT1AR = target: T4, human 5-HT1AR (Homo sapiens, UniProt P08908); conditions: human cloned receptor; read-out: Ki ± SEM, 5-HT1AR; cited from earlier work
T4 construct: expressed in transfected cells; host or cells: HeLa
T4 sequence (P08908 1-422): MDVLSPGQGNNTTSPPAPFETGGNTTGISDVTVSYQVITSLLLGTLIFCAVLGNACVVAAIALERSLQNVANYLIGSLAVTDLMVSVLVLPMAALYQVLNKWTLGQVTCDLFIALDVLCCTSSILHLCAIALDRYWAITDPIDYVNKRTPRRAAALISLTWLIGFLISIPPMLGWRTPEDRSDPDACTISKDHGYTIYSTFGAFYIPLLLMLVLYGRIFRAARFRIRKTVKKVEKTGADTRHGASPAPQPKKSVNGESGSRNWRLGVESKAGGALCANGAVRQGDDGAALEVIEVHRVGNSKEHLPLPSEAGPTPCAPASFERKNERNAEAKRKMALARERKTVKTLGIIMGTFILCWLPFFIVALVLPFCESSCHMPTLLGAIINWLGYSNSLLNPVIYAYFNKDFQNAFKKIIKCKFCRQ

5-HT2AR = 5-HT2AR (Homo sapiens, UniProt P28223); design: expressed in transfected cells; host or cells: HEK (HEK-h5HT2A); conditions: human cloned receptor; read-out: Ki ± SEM, 5-HT2AR; cited from earlier work
D3R [2] = target: T2, D3R; assay: Radioligand competition binding at human D3R ([3H]N-methylspiperone, HEK293 membranes); design: expressed in transfected cells; host or cells: HEK293
Procedure: The novel hybrid derivatives 3–11 were tested at hD2R, hD3R, or hD4R stably expressed in HEK293 cells by competition binding assays, using [^3H]N-methylspiperone as the radioligand, to evaluate their D2-like affinity and subtype selectivity, following the previously reported procedures.[41],[45],[46]
Binding at dopamine D2-like receptors was determined using previously described methods.[41],[45],[46] Membranes were prepared from HEK293 cells stably expressing human D2, D3, or D4, grown in a 50:50 mix of Dulbecco’s minimal essential medium (DMEM) and Ham’s F12 culture media, supplemented with 20 mM HEPES, 2 mM L-glutamine, 0.1 mM nonessential amino acids, 1× antibiotic/antimycotic, 10% heat-inactivated fetal bovine serum, and 200 μg/mL hygromycin (Life Technologies, Grand Island, NY) and kept in an incubator at 37 °C and 5% CO2. Upon reaching 80–90% confluency, the cells were harvested using premixed Earle’s Balanced Salt Solution (EBSS) with 5 μM EDTA (Life Technologies) and centrifuged at 3000 rpm for 10 min at 21 °C. The supernatant was removed, and the pellet was resuspended in 10 mL hypotonic lysis buffer (5 mM MgCl2, 5 mM Tris, pH 7.4 at 4 °C) and centrifuged at 20,000 rpm for 30 min at 4 °C. The pellet was then resuspended in fresh EBSS buffer made from 8.7 g/L Earle’s Balanced Salts without phenol red (US Biological, Salem, MA), 2.2 g/L sodium bicarbonate, pH to 7.4. A Bradford protein assay (Bio-Rad, Hercules, CA) was used to determine the protein concentration, and membranes were diluted to 500 μg/mL and stored at −80 °C for later use. Radioligand competition binding experiments were conducted using thawed membranes. Test compounds were freshly dissolved in 30% DMSO and 70% H2O to a stock concentration of 100 μM. To assist the solubilization of free-base compounds, 10 μL of glacial acetic acid was added along with DMSO. Each test compound was then diluted into 13 half-log serial dilutions using 30% DMSO vehicle; the final test concentrations ranged from 10 μM to 10 pM. The previously frozen membranes were diluted in fresh EBSS to a 100 μg/mL (for D2 or D3) or 200 μg/mL (D4) stock for binding. Radioligand competition experiments were conducted in glass tubes containing 300 μL of fresh EBSS buffer, 50 μL of diluted test compound, 100 μL of membranes (10 μg of total protein for D2 or D3 and 20 μg of total protein for D4), and 50 μL of [^3H]N-methylspiperone (0.4 nM final concentration; PerkinElmer). Nonspecific binding was determined using 10 μM butaclamol (Sigma-Aldrich, St. Louis, MO), and total binding was determined with the 30% DMSO vehicle. All compound dilutions were tested in triplicate and the reaction was incubated for 1 h at room temperature. The reaction was terminated by filtration through Whatman GF/B filters, presoaked for 1 h in 0.5% polyethylenimine, using a Brandel R48 filtering manifold (Brandel Instruments, Gaithersburg, MD). The filters were washed three times with 3 mL of ice-cold EBSS buffer and transferred to scintillation vials. CytoScint liquid scintillation cocktail (3 mL, MP Biomedicals, Solon, OH) was added, and vials were counted using a PerkinElmer Tri-Carb 2910 TR liquid scintillation counter (Waltham, MA).

T2 sequence (P35462 whole entry): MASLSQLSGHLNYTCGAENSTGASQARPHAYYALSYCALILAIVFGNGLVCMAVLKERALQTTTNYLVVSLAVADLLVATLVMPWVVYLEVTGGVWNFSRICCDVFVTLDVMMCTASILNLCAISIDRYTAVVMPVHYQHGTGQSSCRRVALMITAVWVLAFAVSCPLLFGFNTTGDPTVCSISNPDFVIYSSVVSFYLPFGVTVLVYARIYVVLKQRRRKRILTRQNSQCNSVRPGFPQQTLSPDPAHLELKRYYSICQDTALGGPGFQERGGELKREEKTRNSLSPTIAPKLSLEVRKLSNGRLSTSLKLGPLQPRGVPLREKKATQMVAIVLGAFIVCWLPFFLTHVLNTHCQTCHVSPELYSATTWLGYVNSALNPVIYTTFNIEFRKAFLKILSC
T1 sequence (P21728 whole entry): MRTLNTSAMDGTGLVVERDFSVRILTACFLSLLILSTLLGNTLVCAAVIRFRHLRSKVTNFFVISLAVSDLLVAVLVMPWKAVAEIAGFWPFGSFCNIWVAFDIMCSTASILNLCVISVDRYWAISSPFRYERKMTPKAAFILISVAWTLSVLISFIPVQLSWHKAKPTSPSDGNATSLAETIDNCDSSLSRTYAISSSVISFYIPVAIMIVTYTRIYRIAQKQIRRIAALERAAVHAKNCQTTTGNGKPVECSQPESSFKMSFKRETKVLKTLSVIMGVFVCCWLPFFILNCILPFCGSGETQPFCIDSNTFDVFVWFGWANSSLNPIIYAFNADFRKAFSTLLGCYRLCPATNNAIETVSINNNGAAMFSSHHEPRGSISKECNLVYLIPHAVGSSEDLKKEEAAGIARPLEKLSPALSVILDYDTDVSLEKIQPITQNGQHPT
Sequence of D2R (P14416 whole entry): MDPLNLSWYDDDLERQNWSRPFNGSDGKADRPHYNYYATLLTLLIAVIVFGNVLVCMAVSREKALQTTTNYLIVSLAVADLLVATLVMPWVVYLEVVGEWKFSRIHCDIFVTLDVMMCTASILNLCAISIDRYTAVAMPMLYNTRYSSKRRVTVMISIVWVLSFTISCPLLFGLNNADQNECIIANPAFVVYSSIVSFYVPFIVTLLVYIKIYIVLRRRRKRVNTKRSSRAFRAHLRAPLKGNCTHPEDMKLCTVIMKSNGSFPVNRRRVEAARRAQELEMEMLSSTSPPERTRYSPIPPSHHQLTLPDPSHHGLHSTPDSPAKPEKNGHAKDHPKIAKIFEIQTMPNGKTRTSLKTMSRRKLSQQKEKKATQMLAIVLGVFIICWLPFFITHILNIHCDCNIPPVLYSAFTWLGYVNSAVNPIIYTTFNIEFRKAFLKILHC
Sequence of 5-HT2AR (P28223 whole entry): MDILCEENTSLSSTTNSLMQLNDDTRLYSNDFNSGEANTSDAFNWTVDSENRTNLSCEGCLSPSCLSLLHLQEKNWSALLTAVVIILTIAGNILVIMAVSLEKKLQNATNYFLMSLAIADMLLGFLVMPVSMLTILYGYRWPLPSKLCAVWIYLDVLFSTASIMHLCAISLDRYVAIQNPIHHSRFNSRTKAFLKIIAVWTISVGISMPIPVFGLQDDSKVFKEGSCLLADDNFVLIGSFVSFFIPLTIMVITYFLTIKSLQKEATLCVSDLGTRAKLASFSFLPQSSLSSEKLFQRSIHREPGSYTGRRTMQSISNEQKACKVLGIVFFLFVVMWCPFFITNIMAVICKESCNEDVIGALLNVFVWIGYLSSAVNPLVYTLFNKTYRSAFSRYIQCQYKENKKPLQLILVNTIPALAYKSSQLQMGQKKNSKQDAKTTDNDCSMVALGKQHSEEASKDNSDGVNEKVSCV

COc1ccccc1OCCNCC1COCC(c2ccccc2)(c2ccccc2)O1 (centres unmarked) [compound 1]
Ki (human D1R): 22.9 ± 3.1 nM

CN1CCN(C2=Nc3cc(Cl)ccc3Nc3ccccc32)CC1 [clozapine]
D2/D3 (D3R [1]): 0.62 ^e
D4/D3 (D3R [1]): 0.21 ^e

O=C(NCCC(O)CN1CCN(c2cccc(Cl)c2Cl)CC1)C1COc2ccccc2O1 (single isomer, unassigned) (as salt: oxalate) [10a, N-(4-(4-(2,3-Dichlorophenyl)piperazin-1-yl)-3-hydroxybutyl)-2,3-dihydrobenzo[b][1,4]dioxine-2-carboxamide]
melting point: 88 to 89 °C

O=C(NCCC(F)CN1CCN(c2cccc(Cl)c2Cl)CC1)C1COC(c2ccccc2)(c2ccccc2)CO1 (centres unmarked) (as salt: oxalate) [compound 8, N-(4-(4-(2,3-Dichlorophenyl)piperazin-1-yl)-3-fluorobutyl)-5,5-diphenyl-1,4-dioxane-2-carboxamide]
melting point: 126 to 127 °C

O=C(NCCCCN1CCN(c2cccc(Cl)c2Cl)CC1)C1COc2ccccc2O1 (centres unmarked) (as salt: oxalate) [compound 9, N-(4-(4-(2,3-Dichlorophenyl)piperazin-1-yl)butyl)-2,3-dihydrobenzo[b][1,4]dioxine-2-carboxamide]
melting point: 167 to 168 °C

Oc1cccc(OCCNCC2COCC(c3ccccc3)(c3ccccc3)O2)c1 (centres unmarked) [compound 2]
Ki (D2R): 3.16 ± 1 nM
Ki (5-HT2CR): 9770 ± 501 nM
Ki (human 5-HT1AR): 1.15 ± 0.03 nM
Ki (5-HT2AR): 1410 ± 224 nM
Ki (human D1R): 123 ± 11 nM
Ki (D3R [1]; human cloned receptor, read-out: Ki ± SEM, D3R): 1.38 ± 0.07 nM
D2/D3 (D3R [2]; ratio of Ki values D2R/D3R): 2
D4/D3 (D3R [2]; ratio of Ki values D4R/D3R): 8

O=C(NCCCCN1CCN(c2cccc(Cl)c2Cl)CC1)C1COC(c2ccccc2)(c2ccccc2)CO1 (centres unmarked) (as salt: oxalate) [compound 6, N-(4-(4-(2,3-Dichlorophenyl)piperazin-1-yl)butyl)-5,5-diphenyl-1,4-dioxane-2-carboxamide]
melting point: 94 to 95 °C

Cc1cc2c(s1)Nc1ccccc1N=C2N1CCN(C)CC1 [olanzapine]
D2/D3 (D3R [1]): 0.62 ^e
D4/D3 (D3R [1]): 0.51 ^e

O=C(NCCC(F)CN1CCN(c2cccc(Cl)c2Cl)CC1)C1COc2ccccc2O1 (centres unmarked) (as salt: oxalate) [11a, N-(4-(4-(2,3-Dichlorophenyl)piperazin-1-yl)-3-fluorobutyl)-2,3-dihydrobenzo[b][1,4]dioxine-2-carboxamide]
melting point: 200 to 201 °C

O=C(NCCCCN1CCN(c2cccc(Cl)c2Cl)CC1)C1COCC(c2ccccc2)(c2ccccc2)O1 (centres unmarked) (as salt: oxalate) [compound 3, N-(4-(4-(2,3-Dichlorophenyl)piperazin-1-yl)butyl)-6,6-diphenyl-1,4-dioxane-2-carboxamide]
melting point: 107 to 108 °C

O=C(NCCC(O)CN1CCN(c2cccc(Cl)c2Cl)CC1)C1COC(c2ccccc2)(c2ccccc2)CO1 (centres unmarked) (as salt: oxalate) [compound 7, N-(4-(4-(2,3-Dichlorophenyl)piperazin-1-yl)-3-hydroxybutyl)-5,5-diphenyl-1,4-dioxane-2 Carboxamide]
melting point: 132 to 133 °C
